Consider 23 molecules from ChEMBL document CHEMBL1208719, “Design and synthesis of 4-[3,5-dioxo-11-oxa-4,9-diazatricyclo[5.3.1.0(2,6)]undec-4-yl]-2-trifluoromethyl-benzonitriles as androgen receptor antagonists” (Bioorg Med Chem Lett, 2010).

The target in assay [1] is T1, Androgen receptor (Homo sapiens, UniProt P10275).
T1 sequence (P10275 whole entry): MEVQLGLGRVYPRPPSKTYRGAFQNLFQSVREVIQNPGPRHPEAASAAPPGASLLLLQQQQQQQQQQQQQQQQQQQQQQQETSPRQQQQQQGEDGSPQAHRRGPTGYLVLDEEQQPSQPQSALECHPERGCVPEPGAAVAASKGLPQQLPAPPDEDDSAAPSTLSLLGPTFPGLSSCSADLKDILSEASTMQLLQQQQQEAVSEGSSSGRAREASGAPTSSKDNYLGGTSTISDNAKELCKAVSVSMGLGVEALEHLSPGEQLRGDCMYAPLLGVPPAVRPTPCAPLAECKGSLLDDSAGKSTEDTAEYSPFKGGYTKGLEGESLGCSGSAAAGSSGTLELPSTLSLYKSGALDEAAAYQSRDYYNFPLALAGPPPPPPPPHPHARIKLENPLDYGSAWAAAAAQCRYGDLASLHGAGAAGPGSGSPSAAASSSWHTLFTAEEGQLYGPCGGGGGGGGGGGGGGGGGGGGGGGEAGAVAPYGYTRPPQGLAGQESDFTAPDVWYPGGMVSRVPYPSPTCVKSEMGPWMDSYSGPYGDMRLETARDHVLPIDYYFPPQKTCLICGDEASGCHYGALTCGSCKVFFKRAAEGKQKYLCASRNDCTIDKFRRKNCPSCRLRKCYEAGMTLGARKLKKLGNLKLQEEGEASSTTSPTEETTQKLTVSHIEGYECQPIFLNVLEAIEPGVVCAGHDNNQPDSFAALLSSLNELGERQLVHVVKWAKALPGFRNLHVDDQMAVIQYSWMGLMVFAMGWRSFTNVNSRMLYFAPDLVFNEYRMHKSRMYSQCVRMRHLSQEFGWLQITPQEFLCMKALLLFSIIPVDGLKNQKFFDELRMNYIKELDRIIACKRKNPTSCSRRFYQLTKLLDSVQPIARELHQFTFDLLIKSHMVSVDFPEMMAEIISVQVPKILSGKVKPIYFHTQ
Briefly: Displacement of [3H]DHT from AR in human MDA-MB-453 cells. On the technique in general: Displacement assays read how much labelled ligand stays bound in the presence of the test substance.

For the next assay, the system named is MDA-MB-435. Description: Cytotoxicity against human MDA-MB-435 cells assessed as inhibition of DHT-induced cell growth at 5 uM. It counts as functional.
The next assay relates to LNCaP. Briefly: Cytotoxicity against human LNCAP cells assessed as inhibition of DHT-induced cell growth at 5 uM. The class given is functional.
For assay [2], the target named is T1, Androgen receptor.
Description: Antagonist activity at human wild type AR expressed in human MDA-MB-435 cells by transactivation assay
For assay [3], the target named is T1, Androgen receptor. The source holds these as a separate data set.
Description: Antagonist activity at wild type human AR expressed in human LNCAP cells by transactivation assay

A value given as a limit tells only on which side of the number the result lay.

One may read the Ki as a dissociation constant, usually derived from enzyme kinetics or from competition with a known ligand. A high value points to lower affinity. By inhibition is commonly meant the relative decrease from the control value, in per cent. One may read the IC50 as the concentration at which inhibition is half-maximal. A high value points to weaker potency in that assay. As to `C[C@]12CNC[C@](C)(O1)[C@@H]1C(=O)N(c3ccc(C#N)c(C(F)(F)F)c3)C(=O)[C@@H]12`, at Androgen receptor [1], affinity was put at a Ki of 21 nM. The values for the inhibition at 5 µM with MDA-MB-435 and with LNCaP were 98% and 20%, respectively. Besides, the IC50 against Androgen receptor [2] was 128 nM; against Androgen receptor [3], over 5000 nM.
At Androgen receptor [1], `CCCN1C[C@@]2(C)O[C@@](C)(C1)[C@@H]1C(=O)N(c3ccc(C#N)c(C(F)(F)F)c3)C(=O)[C@@H]12` showed a Ki of 14 nM. The inhibition at 5 µM with MDA-MB-435 worked out at 99%; with LNCaP it was 98%. Moreover, the IC50 came to 14 nM against Androgen receptor [2] and 25 nM against Androgen receptor [3].
With `CCC(=O)N1C[C@@]2(C)O[C@@](C)(C1)[C@@H]1C(=O)N(c3ccc(C#N)c(C(F)(F)F)c3)C(=O)[C@@H]12`, the affinity on Androgen receptor [1], expressed as Ki, was 84 nM. Further, the inhibition at 5 µM in the assay on MDA-MB-435 stood at 95%; with LNCaP, 91%. Also, the IC50 against Androgen receptor [2] was determined as 129 nM; against Androgen receptor [3], 549 nM.
`CC(C)C(=O)N1C[C@@]2(C)O[C@@](C)(C1)[C@@H]1C(=O)N(c3ccc(C#N)c(C(F)(F)F)c3)C(=O)[C@@H]12` showed an inhibition constant Ki at Androgen receptor [1] of 39 nM. Moreover, the inhibition at 5 µM with MDA-MB-435 worked out at 98%; with LNCaP, 72%. Moreover, the IC50 amounted to 215 nM against Androgen receptor [2] and 1610 nM against Androgen receptor [3].
Regarding `C[C@]12CN(C(=O)C3CC3)C[C@](C)(O1)[C@@H]1C(=O)N(c3ccc(C#N)c(C(F)(F)F)c3)C(=O)[C@@H]12`, at Androgen receptor [1], the affinity corresponds to a Ki of 36 nM. Also, the inhibition at 5 µM in the assay on MDA-MB-435 amounted to 99%; with LNCaP, 95%. For the same molecule, at Androgen receptor [3], the IC50 came to 404 nM.
In turn, `C[C@]12CN(C(=O)c3ccccc3)C[C@](C)(O1)[C@@H]1C(=O)N(c3ccc(C#N)c(C(F)(F)F)c3)C(=O)[C@@H]12` yielded a Ki at Androgen receptor [1] of 23 nM. In addition, the values for the inhibition at 5 µM in the assay with MDA-MB-435 and with LNCaP were 99% and 98%, respectively. The values for the IC50 on Androgen receptor [2] and against Androgen receptor [3] were 54 nM and 177 nM, respectively.
With `CC(C)NC(=O)N1C[C@@]2(C)O[C@@](C)(C1)[C@@H]1C(=O)N(c3ccc(C#N)c(C(F)(F)F)c3)C(=O)[C@@H]12`, the affinity on Androgen receptor [1], expressed as Ki, was 98 nM. Also, the figures for the inhibition at 5 µM in the assay on MDA-MB-435 and in the assay with LNCaP were 88% and 52%, respectively. Also, the IC50 worked out at 876 nM against Androgen receptor [2] and 4600 nM at Androgen receptor [3].
The matching figures for `C[C@]12CN(C(=O)Nc3ccccc3)C[C@](C)(O1)[C@@H]1C(=O)N(c3ccc(C#N)c(C(F)(F)F)c3)C(=O)[C@@H]12`: 40 nM, 99%, 98%, 16 nM and 123 nM.
`CCOC(=O)N1C[C@@]2(C)O[C@@](C)(C1)[C@@H]1C(=O)N(c3ccc(C#N)c(C(F)(F)F)c3)C(=O)[C@@H]12` came in with a Ki on Androgen receptor [1] of 5.7 nM. The inhibition at 5 µM turned out to be 99% in the assay with MDA-MB-435 and 93% in the assay on LNCaP. Besides, the IC50 against Androgen receptor [2] was 65 nM; at Androgen receptor [3], 590 nM.
For `CCCOC(=O)N1C[C@@]2(C)O[C@@](C)(C1)[C@@H]1C(=O)N(c3ccc(C#N)c(C(F)(F)F)c3)C(=O)[C@@H]12`, in that order: 6.6 nM, 99%, 99%, 9.3 nM and 54 nM.
For `C[C@]12CN(C(=O)Nc3ccc(F)cc3)C[C@](C)(O1)[C@@H]1C(=O)N(c3ccc(C#N)c(C(F)(F)F)c3)C(=O)[C@@H]12`, in that order: 29 nM, 99%, 98%, 39 nM and 104 nM.
`C[C@]12CN(S(C)(=O)=O)C[C@](C)(O1)[C@@H]1C(=O)N(c3ccc(C#N)c(C(F)(F)F)c3)C(=O)[C@@H]12` had a Ki on Androgen receptor [1] of 56 nM. Besides, the inhibition at 5 µM in the assay on MDA-MB-435 worked out at 99%; in the assay on LNCaP, 61%. For the same molecule, the values for the IC50 at Androgen receptor [2] and against Androgen receptor [3] were 205 nM and 3510 nM, respectively.
In the case of `CCS(=O)(=O)N1C[C@@]2(C)O[C@@](C)(C1)[C@@H]1C(=O)N(c3ccc(C#N)c(C(F)(F)F)c3)C(=O)[C@@H]12`, the Ki on Androgen receptor [1] is 16 nM. Also, the figures for the inhibition at 5 µM in the assay with MDA-MB-435 and with LNCaP were 99% and 90%, respectively. Also, the values for the IC50 at Androgen receptor [2] and on Androgen receptor [3] were 85 nM and 600 nM, respectively.
Molecule `C[C@]12CN(c3cc(Cl)ncn3)C[C@](C)(O1)[C@@H]1C(=O)N(c3ccc(C#N)c(C(F)(F)F)c3)C(=O)[C@@H]12` showed a Ki at Androgen receptor [1] of 3.5 nM. Also, the inhibition at 5 µM with MDA-MB-435 is 98%; with LNCaP, 100%. Further, on Androgen receptor [2], half-maximal inhibition (IC50) was put at 11 nM.
On to `C[C@]12CN(c3cccc(C(N)=O)c3)C[C@](C)(O1)[C@@H]1C(=O)N(c3ccc(C#N)c(C(F)(F)F)c3)C(=O)[C@@H]12`, for which, at Androgen receptor [1], the Ki was determined as 9 nM. The inhibition at 5 µM in the assay on MDA-MB-435 stood at 98%; with LNCaP it was 99%. On Androgen receptor [3], this molecule displayed an IC50 of 127 nM.
`CN1C(=O)[C@]2(C)O[C@](C)(C1=O)[C@H]1C(=O)N(c3ccc(C#N)c(C(F)(F)F)c3)C(=O)[C@H]12` displayed a Ki at Androgen receptor [1] of 20 nM. Further, the IC50 was 2140 nM against Androgen receptor [2] and over 5000 nM against Androgen receptor [3].
For `C[C@]12O[C@](C)(C(=O)N(CC3CC3)C1=O)[C@H]1C(=O)N(c3ccc(C#N)c(C(F)(F)F)c3)C(=O)[C@H]12`, the affinity at Androgen receptor [1] corresponds to a Ki of 50 nM. Moreover, the IC50 stood at 873 nM at Androgen receptor [2] and 3330 nM against Androgen receptor [3].
Regarding `CC(C)OC(=O)N1C[C@@]2(C)O[C@@](C)(C1)[C@@H]1C(=O)N(c3ccc(C#N)c(C(F)(F)F)c3)C(=O)[C@@H]12`, the Ki on Androgen receptor [1] stood at 11 nM. Moreover, the inhibition at 5 µM in the assay on MDA-MB-435 and with LNCaP was 99% throughout. Moreover, the IC50 against Androgen receptor [2] was 12 nM; at Androgen receptor [3] it was 69 nM.
On to `CC(C)[N+]1([O-])C(=O)[C@]2(C)O[C@](C)(C1=O)[C@H]1C(=O)N(c3ccc(C#N)c(C(F)(F)F)c3)C(=O)[C@H]12` (some centres not stated), for which, at Androgen receptor [1], the Ki is 3600 nM. Moreover, the inhibition at 5 µM with MDA-MB-435 was determined as 58%. Moreover, the IC50 on Androgen receptor [2] was 3900 nM; on Androgen receptor [3] it was 5000 nM.
On Androgen receptor [1], `CCNC(=O)N1C[C@@]2(C)O[C@@](C)(C1)[C@@H]1C(=O)N(c3ccc(C#N)c(C(F)(F)F)c3)C(=O)[C@@H]12` returned a Ki of 176 nM. Further, the inhibition at 5 µM in the assay with MDA-MB-435 was 97%; in the assay on LNCaP, 76%. The IC50 on Androgen receptor [2] worked out at 313 nM; on Androgen receptor [3] it was 1460 nM.
The matching figures for `CC(C)N1C(=O)[C@]2(C)O[C@](C)(C1=O)[C@H]1C(=O)N(c3ccc(C#N)c(C(F)(F)F)c3)C(=O)[C@H]12`: 14 nM, 99%, 99%, 32 nM and 125 nM.
`C[C@]12CN(O)C[C@](C)(O1)[C@@H]1C(=O)N(c3ccc(C#N)c(C(F)(F)F)c3)C(=O)[C@@H]12`: at Androgen receptor [1], the Ki worked out at 37 nM. Further, the inhibition at 5 µM in the assay on MDA-MB-435 came out at 97%; in the assay on LNCaP, 79%. For the same molecule, the IC50 amounted to 182 nM against Androgen receptor [2] and 1280 nM against Androgen receptor [3].
As for `CON1C[C@@]2(C)O[C@@](C)(C1)[C@@H]1C(=O)N(c3ccc(C#N)c(C(F)(F)F)c3)C(=O)[C@@H]12`, on Androgen receptor [1], the affinity corresponds to a Ki of 3.7 nM. Moreover, the values for the inhibition at 5 µM in the assay with MDA-MB-435 and with LNCaP were 99% and 72%, respectively. In addition, the IC50 on Androgen receptor [2] came out at 24 nM; against Androgen receptor [3], 179 nM.
